Where two headings read alike, the source gives them in different places.

The assay deals with MYC:TRRAP interaction (Homo sapiens, UniProt P01106+Q9Y4A5). The experiment in a line: MYC:TRRAP in-cell luminescence complementation assay (NanoBiT; SmB-MYC 1-190 and TRRAP 2033-2283-LgB in HeLa cells). The assay is classed as cell-based. The procedure:
HeLa cells plated on Greiner 96-well TC-rated white plates with clear bottoms were used for the following measurements. Reverse transfections were carried out using LipoD293™ before cells were plated. A bluescript KS' plasmid (Addgene) was used as carrier DNA for transfections, and a pcDNA3.1 EGFP plasmid (ThermoFisher) was used as a fluorescence reporter. White light-reflecting film (USA Scientific) was used to cover the bottom of the plates for luminescence measurements. Black light-absorbing film was used to cover the top of the plates for fluorescence measurements. All measurements were taken on a SpectraMax i3 instrument (Molecular Devices).
Transfections were carried out with increasing DNA amounts (1-100 ng per well) of a CMV-driven LgB plasmid and SmB in excess or vice-versa. Background luminesce for the usable range and the amount of DNA needed for vast excess of LgB or SmB were noted. Next, complementation with vast excess either LgB or SmB was used to determine the expression of each of the indicated MYC and TRRAP constructs for a range of DNA amounts per well: 10-100 ng. An optimal ratio of DNA to equalize the expression of each MYC and TRRAP pair was calculated. Then, signal-to-noise ratios were calculated for the indicated MYC and TRRAP pairs, and the pair with the highest ratio was chosen. Finally, the chosen pair was used to determine the optimal DNA transfection mixture. It was determined to be 6.7 ng of a plasmid with a MYC construct, 60 ng of a plasmid with a TRRAP construct and 33.3 ng of the pcDNA 3.1 EGFP plasmid, for each well in a 96-well plate. Unless otherwise indicated, these were the ratios of DNA transfected for this type of assay.
HeLa cells were transfected as above using LipoD293™ with a mixture of SmB-MYC 1-190, TRRAP 2033-2283-LgB, and EGFP in CMV-driven plasmids at the same optimized ratio described above. Two days post-transfection, the media in each well was replaced with fresh media containing each compound from the NCI's sets at 25 μM. Cells were incubated for 2 h with each compound, and luminescence and fluorescence measurements were recorded for each well. Changes in luminescence were normalized to fluorescence. The following pre-plated compound sets were obtained from the NCI/DTP chemical repository and used for this screen:
These chemical sets were used to discover novel small-molecule inhibitors of the MYC:TRRAP complex. SmB-MYC 1-190, TRRAP 2033-2283-LgB, and EGFP were transfected into HeLa cells. Two days post-transfection, compounds were added to the media at 25 μM and cells were incubated for 2h. Luminescence and fluorescence were recorded for each well containing one of the compounds. Changes in luminescence measurements were normalized to fluorescence measurements.
Afterwards, only molecules that reduced luminescence levels to <50% RLU were considered. This set of 46 compounds were incubated at 10 μM with vector-expressing cells. Luminescence complementation was measured and repeated in triplicate measurements. In addition, HeLa cells expressing LgB and SmB alone were incubated with the same compounds to rule out potentially artificial results due to inhibition of luciferase or its complementation. Molecules that induces any significant reduction in luminescence (<0.6) during this control assay were not considered further. Of 2947 molecules, 17 were chosen for further testing and ordered from the NCI/DTP Open Chemical Repository. FIG. 16 describes these chosen compounds.
Using the luminescence assay above as a readout for the MYC:TRRAP interaction, we used a robotic liquid handler to evaluate 2987 additional compounds (25 μM). All primary hits were counter-screened for any activity against the luciferase enzyme itself and for any effects on the expression of the fusion proteins. We set a threshold of 50% inhibition to consider compounds further. Only 17 out of 2987 passed all these criteria (0.6%). […]

The mark [1] stands for this setting: Table 2, compounds with >80% similarity to compound 10 (NSC657456), 10 uM.
The mark [2] stands for this setting: Table 1, 46 primary hits at 10 uM, HeLa cells, triplicate measurements.

MYC:TRRAP interaction, sequence (P01106 16-205): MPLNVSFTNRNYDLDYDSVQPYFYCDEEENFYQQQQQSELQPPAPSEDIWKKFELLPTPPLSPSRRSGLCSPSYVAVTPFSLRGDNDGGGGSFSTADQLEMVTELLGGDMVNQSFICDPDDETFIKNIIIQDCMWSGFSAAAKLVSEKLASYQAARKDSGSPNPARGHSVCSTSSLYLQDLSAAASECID
MYC:TRRAP interaction, sequence (Q9Y4A5 2051-2301): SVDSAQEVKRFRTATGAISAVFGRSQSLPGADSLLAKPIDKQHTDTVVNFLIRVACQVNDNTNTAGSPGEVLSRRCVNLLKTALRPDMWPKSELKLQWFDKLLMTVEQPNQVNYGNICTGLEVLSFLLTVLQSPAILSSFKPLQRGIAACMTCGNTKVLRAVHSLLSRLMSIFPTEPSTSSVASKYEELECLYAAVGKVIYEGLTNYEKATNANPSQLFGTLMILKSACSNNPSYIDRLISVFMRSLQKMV

Take `O=C1CSC(/N=N/c2c(O)[nH]c3ccccc23)=N1` [Compound 1016, 2-[(2-hydroxy-1H-indol-3-yl)diazenyl]-1,3-thiazol-4-one]: under setting [1], the “% Inhibition 10 uM” value amounted to 104.5%.

For the compound `CN(C)c1ccc(/C=C/C(=O)c2cc(Cl)ccc2O)cc1` [Compound 35, (E)-1-(5-chloro-2-hydroxyphenyl)-3-[4-(dimethylamino)phenyl]prop-2-en-1-one], the “% Inhibition 10 uM” value under setting [2] is given as 50.79%.

Take `N#C/C(S)=N/c1ccc(F)cc1` [Compound 19, 1-cyano-N-(4-fluorophenyl) methanethioamide]: the “% Inhibition 10 uM” value under setting [2] is 92.01%.

Regarding `Cc1ccccc1NC(=O)Cc1csc(/N=N/c2c(O)[nH]c3ccccc23)n1` [Compound 1029], under setting [1], the “% Inhibition 10 uM” value is given as 98.07%.

As to `N=C(S)/N=N/c1c(O)[nH]c2ccccc12` [Compound 101, (2-hydroxy-1H-indol-3-yl)iminothiourea], the “% Inhibition 10 uM” value under setting [1] was 104.5%.

In the case of `Cc1ccccc1/N=C(S)/N=N/c1c(O)[nH]c2ccccc12` [Compound 1034, 1-[(2-hydroxy-1H-indol-3-yl)imino]-3-(2-methylphenyl) thiourea], the “% Inhibition 10 uM” value under setting [1] came to 111.9%.

Regarding `O=[N+]([O-])c1ccc(-c2csc(N=Nc3c(O)[nH]c4ccccc34)n2)cc1` [Compound 1023, 3-[[4-(4-nitrophenyl)-1,3-thiazol-2-yl]diazenyl]-1H-indol-2-ol], the “% Inhibition 10 uM” value under setting [1] turned out to be 47.93%.

Turning to `Oc1[nH]c2ccccc2c1/N=N/C(=S)N1CCCC1` [Compound 1033, N-((2-hydroxy-1H-indol-3-yl)imino] pyrrolidine-1-carbothioamide], under setting [1], the “% Inhibition 10 uM” value stood at 86.96%.

For `CC[C@H](C)[C@@H]1/N=C(\O)[C@@H](NC(=O)c2c3nc4c(C(=O)N[C@@H]5/C(O)=N/[C@@H](C(C)C)C(=O)N6CCC[C@H]6C(=O)N(C)CC(=O)N(C)[C@@H](C(C)C)C(=O)O[C@@H]5C)ccc(C)c4oc-3c(C)c(=O)c2N)[C@@H](C)OC(=O)[C@H](C(C)C)N(C)C(=O)CN(C)C(=O)[C@@H]2CCCN2C1=O` [Compound 20, 2-amino-1-N-[(3S,6S,7R,10S, 16S)-3-[(2S)-butan-2-yl]-7,11,14-trimethyl-2,5,9,12,15-pentaoxo-10-propan-2-yl-8-oxa-1,4,11,14-tetrazabicyclo [14.3.0]nonadecan-6-yl]-4,6-dimethyl-3-oxo-9-N-[(3S,6S,7R, 10S,16S)-7,11,14-trimethyl-2,5,9,12,15-pentaoxo-3,10-di(propan-2-yl)-8-oxa-1,4,11,14-tetrazabicyclo [14.3.0]nonadecan-6-yl]phenoxazine-1,9-dicarboxamide], the “% Inhibition 10 uM” value was determined as 41.4%.

Regarding `O=[N+]([O-])c1cccc(-c2csc(/N=N/c3c(O)[nH]c4ccccc34)n2)c1` [Compound 1022, 3-[[4-(3-nitrophenyl)-1,3-thiazol-2-yl]diazenyl]-1H-indol-2-ol], the “% Inhibition 10 uM” value under setting [1] came out at 54.58%.

With `N=C(S)/N=N/c1c(O)[nH]c2cccc(C(F)(F)F)c12` [Compound 1015, [2-hydroxy-4-(trifluoro-methyl)-1H-indol-3-yl]iminothiourea], the “% Inhibition 10 uM” value under setting [1] worked out at 82.44%.

For the compound `CC1(C)CCC2=C(O1)c1ccccc1C(=O)C2=O` [Compound 40, 2,2-dimethyl-3,4-dihydrobenzo[h] chromene-5,6-dione], under setting [2], the “% Inhibition 10 uM” value is 76.06%.

Take `Cc1ccc(NC(=S)C#N)c(C)c1` [Compound 26, 1-cyano-N-(2,4-dimethylphenyl) methanethioamide]: the “% Inhibition 10 uM” value under setting [2] came to 90.89%.

Turning to `FC(F)(F)c1cccc(-c2nc3nc(Cl)c(Cl)[nH]c-3n2)c1` [Compound 32, 5,6-dichloro-2-[3-(trifluoromethyl)phenyl]-1H-imidazo[4,5-b]pyrazine], the “% Inhibition 10 uM” value under setting [2] is on record as 80.85%.

In the case of `COc1c(OC)c2c3c(nccc3c1OC)-c1cc(=O)c(OC)ccc1-2` [Compound 30], under setting [2], the “% Inhibition 10 uM” value was 68.68%.

As for `O=[N+]([O-])c1ccc(/N=N/c2c(O)[nH]c3ccccc23)cc1` [Compound 109, 3-[(4-nitrophenyl)diazenyl]-1H-indol-2-ol], the “% Inhibition 10 uM” value under setting [1] was 54.48%.

Take `COC(=O)c1c[nH]c2c1-c1cc(C(=O)OCc3ccccc3)n(S(=O)(=O)c3ccc(C)cc3)c1C(=O)C2=O` [Compound 7, 2-O-benzyl 8-O-methyl 3-(4-methylphenyl) sulfonyl-4,5-dioxo-6H-pyrrolo[3,2-e]indole-2,8-dicarboxylate]: under setting [2], the “% Inhibition 10 uM” value is on record as 16.02%.

In the case of `Cc1cc(N(C)C)ccc1/N=N/c1ccc2ncccc2c1` [Compound 12, N,N,3-trimethyl-4-(quinolin-6-yldiazenyl)aniline], under setting [2], the “% Inhibition 10 uM” value turned out to be 58.86%.

Consider `COc1cc2c3c(cc4ccccc4c3c1O)N(C)CC2` [Compound 39], for which the “% Inhibition 10 uM” value under setting [2] is listed as 73.42%.

On to `C=CC/N=C(S)/N=N/c1c(O)[nH]c2ccccc12` [Compound 1018], for which, under setting [1], the “% Inhibition 10 uM” value was determined as 77.04%.

For `CC(=O)OC(C)C1C2=C(C(=O)C[C@]1(C)O)C(=O)c1c(ccc(-c3ccc4c(c3O)C(=O)C3=C(C4=O)C(C(C)OC(C)=O)[C@@](C)(O)CC3=O)c1O)C2=O` (stereo partly drawn) [Compound 17, 1-[(2S)-6-[(6S)-5-(1-acetyloxyethyl)-1,6-dihydroxy-6-methyl-8,9,10-trioxo-5,7-dihydroanthracen-2-yl]-2,5-dihydroxy-2-methyl-4,9,10-trioxo-1,3-dihydroanthracen-1-yl]ethyl acetate], the “% Inhibition 10 uM” value under setting [2] worked out at 46.81%.

Consider `COc1c2c(c(CC=C(C)C)c3oc(=O)c(-c4ccc(O)cc4)c(O)c13)OC(C)(C)C=C2` [Compound 24, 6-hydroxy-7-(4-hydroxyphenyl)-5-methoxy-2,2-dimethyl-10-(3-methylbut-2-enyl)pyrano[3,2-g]chromen-8-one], for which the “% Inhibition 10 uM” value under setting [2] is 41.01%.

On to `Nc1ccc(N=Nc2ccccc2Cl)c(N)n1` [Compound 1, 3-[(2-chlorophenyl)diazenyl] pyridine-2,6-diamine], for which the “% Inhibition 10 uM” value under setting [2] was found to be 14.38%.

Turning to `CN(C)c1ccc2c(c1)Sc1cc(N(C)C)ccc1N2C(=O)c1ccccc1` [Compound 44, [3,7-bis(dimethylamino)phenothiazin-10-yl]-phenylmethanone], under setting [2], the “% Inhibition 10 uM” value turned out to be 93.68%.

On to `COc1cccc2c1C(=O)c1c(O)c3c(c(O)c1C2=O)C[C@@](O)(C(C)=O)C[C@@H]3OC1CC(N(Cc2ccccc2)Cc2ccccc2)C(O)C(C)O1.Cl` (stereo partly drawn) [Compound 34, (7S,9S)-9-acetyl-7-[4-(dibenzylamino)-5-hydroxy-6-methyloxan-2-yl]oxy-6,9,11-trihydroxy-4-methoxy-8,10-dihydro-7H-tetracene-5,12-dione; hydrochloride], for which the “% Inhibition 10 uM” value under setting [2] is listed as 78.65%.

Consider `c1ccc2c(c1)=NOc1[nH]c3ccccc3c1N=2` [Compound 1039, 5H-indolo[2,3-c][2,1,5]ben-zoxadiazepine], for which the “% Inhibition 10 uM” value under setting [1] was 59.84%.

For the compound `Cc1cccc(/N=C(S)/N=N/c2c(O)[nH]c3ccccc23)c1` [Compound 1035, 1-[(2-hydroxy-1H-indol-3-yl)imino]-3-(3-methylphenyl) thiourea], under setting [1], the “% Inhibition 10 uM” value stood at 82.12%.

With `N=C(/N=N/c1c(O)[nH]c2ccccc12)C(=N)/N=N/c1c(O)[nH]c2ccccc12` [Compound 103, 1-N,2-N-bis[(2-hydroxy-1H-indol-3-yl)imino]ethane-diimidamide], the “% Inhibition 10 uM” value under setting [1] is on record as 88.83%.

Values taken from patent US20260216144A1, “TARGETING MB2 OF THE MYC ONCOGENE AND ITS INTERACTION WITH TRRAP IN CANCER” (priority 2019, published 2026).
